According to patent US20110130425A1, “Use of H3 Histaminergic Agonists for the Treatment of Addiction to Drugs of Abuse” (priority 2009, published 2011):
“Also recorded” adds a separate entry of the source.

Key:
[1] = system: alcohol seeking behavior; assay: Relapse into seeking alcohol self-administration (reinstatement by alcohol or foot-shock stress); format: in vivo, Sprague-Dawley rat; details: L-histidine 1 g/kg orally, rats
Method: Fourteen male Sprague-Dawley rats obtained from Charles-River weighing 200 g at the beginning of the protocol are used. Rats are water-deprived for the few hours before the first overnight session. Rats are placed in an operant chamber (Panlab) with two levers. Pressing the “active” lever provides access to 0.1 ml of a 20% sucrose solution under a continuous reinforcement program. A light above the active lever signals availability of the solution in a drinking chamber for 20 seconds.
The following daily sessions take 60 minutes and water is provided ad libitum. […] Afterwards, the program is increased to Fixed Ratio 2 (FR2), i.e., two lever presses give access to one reinforcement. Self-administration is maintained next to FR3 and finally to FR5.
Before extinction sessions, saline is administered orally (5 ml/kg) to all rats. For extinction training, rats are placed in the same operant chambers but no alcohol access or cue light is contingent on lever press. Once rats decrease lever press to less than 10 presses per hour they are considered ready for reinstatement (relapse) procedures.
Before the reinstatement sessions, saline 5 ml/kg or L-histidine 1 g/kg (dissolved in saline and adjusted to pH 5) are administered orally to the rats. […]

[2] = system: relapse into cocaine seeking; assay: Relapse phase: rehabilitation test, relapse induced by a single dose of cocaine; format: in vivo, rat; details: L-histidine 500 mg/kg i.p. one hour before; cocaine 0.5 mg/kg; vs saline; rats
Source text: III. Relapse Phase: The relapse phase is studied by using a rehabilitation test. In this phase, the desire of the rats for the drug is again induced by the administration of a single dose of drug. At this instant, the rat again feels the desire to obtain the drug, and so it again begins to press on the lever to obtain the drug, but the drug is not available to the animal.
The behavior of the rats was also studied during the relapse phase, after the animals had gone through the extinction phase. In the extinction phase, the animals received no reward (dose of cocaine) when they pressed the lever. After a minimum of six extinction sessions, lasting 2 hours each session, carried out on consecutive days, the lever-pressing behavior of the rats diminished at least 20 times in comparison to the start of the extinction sessions.
When the number of times that the rats pressed the lever decreased, the animals were subjected to 4 hour rehabilitation sessions (i.e., relapse sessions). These rehabilitation sessions consisted initially of extinction sessions of 3 hours, followed by the automatic release, by an injection, of a saline solution or different doses of cocaine. During the fourth hour, the behavior of the animals was studied in regard to the number of times that they pressed the lever after the administration of the different doses of cocaine (0 mg/kg, 0.5 mg/kg and 2 mg/kg). The number of times that the lever was pressed increased in proportion to the dose of cocaine administered (cocaine at 0.5 mg/kg or 2 mg/kg administered intravenously, or saline in controls) (FIG. 8). However, this increase in the number of times that the animals pressed the lever was not rewarded with the administration of more cocaine. The number of times that the rats pressed the lever was indicative of the rat's need to find the drug. Even so, the pressing of the lever was not rewarded with more cocaine, which differentiates this stage from that corresponding to self-administration. […]

How did the “reinstatement of alcohol seeking behavior caused by stress” value ([1]; foot-shock stress) turn out when `N[C@@H](Cc1c[nH]cn1)C(=O)O` [L-histidine] was run?
The value was “decreases the reinstatement”.

And the “reinstatement of alcohol seeking behavior caused by exposure to ethanol” value [1]?
Its value is “decreases the reinstatement”.

And the “lever pressing after relapse induced by a single dose of cocaine” value [2]?
Its value is “caused a decrease in the pressing on the lever; also recorded: diminished significantly”.
